In US11840560B2, “Prodrugs and uses thereof” (Novo Nordisk A/S, priority 2022, dated 2023):
*1 amine or outer side, *2 acyl side, *3 side chain or, on linkers, in order; H or OH if unused. Where a SMILES comes first, the peptide text is derived from it. Side-chain parts run from the residue outwards. [ ]: non-standard residue; d: D form. The star is where a group is joined. X1 = O=C(O)CCCCCCCCCCCCCCC(=O)N[C@@H](CCC(=O)NCCCC[C@H](NC(=O)CC[C@H](NC(=O)CCCCCCCCCCCCCCC(=O)O)C(=O)O)C(=O)*)C(=O)O; N(2-Aminoethyl)Gly = O=C(CN(CCN[*:3])[*:1])[*:2]; C18 diacid = O=C(O)CCCCCCCCCCCCCCCCC(=O)*; C16 diacid = O=C(O)CCCCCCCCCCCCCCC(=O)*; γGlu = O=C(O)[C@H](CCC(=O)[*:2])N[*:1]; εLys = N[C@@H](CCCCN[*:1])C(=O)[*:2]; AEEA = NCCOCCOCC(=O)O; Aib = CC(C)(N)C(=O)O; Sar = CNCC(=O)O

What was measured:
[1] = in vivo; set-up: species or system Göttingen minipigs; conditions: female, Göttingen, minipig, iv
Procedure: The purpose of this method is to determine the half-life in vivo of the derivatives of the present invention after i.v. administration to minipigs, i.e. the prolongation of their time in the body and thereby their time of action. This is done in a pharmacokinetic (PK) study, where the terminal half-life of the derivative in question is determined. By terminal half-life is generally meant the period of time it takes to halve a certain plasma concentration, measured after the initial distribution phase.
Female Göttingen minipigs were obtained from Ellegaard Göttingen Minipigs (Dalmose, Denmark) approximately 7-14 months of age and weighing from approximately 16-35 kg were used in the studies. The minipigs were housed individually and fed restrictedly once daily with SDS minipig diet (Special Diets Services, Essex, UK).
After at 3 weeks of acclimatisation two permanent central venous catheters were implanted in vena cava caudalis in each animal. The animals were allowed 1 week recovery after the surgery, and were then used for repeated pharmacokinetic studies with a suitable wash-out period between successive derivative dosing.
The animals were fasted for approximately 18 hours before dosing and from 0 to 4 hours after dosing but had ad libitum access to water during the whole period.
The sodium salts of compounds of Examples 1 were prepared using method SX_A under General Methods for preparation of the compounds of the invention. The resulting sodium salts were dissolved to a concentration of 50-300 nmol/mL in a buffer containing 0.007% polysorbate 20, 50 mM sodium phosphate, 70 mM sodium chloride, pH 7.4. Intravenous injections (the volume corresponding to usually 1-20 nmol/kg, for example 0.02-0.05 mL/kg) of the compounds were given through one catheter, and blood was sampled at predefined time points for up to 21 days post dosing (preferably through the other catheter). Blood samples (for example 0.8 mL) were collected in 8 mM EDTA buffer and then centrifuged at 4° C. and 1942 g for 10 minutes.
Plasma was pipetted into Micronic tubes on dry ice and kept at −20° C. until analysed for plasma concentration of the compounds using ELISA, or a similar antibody-based assay, or LCMS. Individual plasma concentration-time profiles were analysed by a non-compartmental model in Phoenix WinNonLin ver. 6.4. (Pharsight Inc., Mountain View, CA, USA), and the resulting terminal half-lives (harmonic mean) determined.
The terminal half-lives and/or the observed terminal half-lives, measured as described herein in General Methods for Measuring Terminal Half-Life in Minipigs are shown in Table 7. […] This provides evidence that conversion of prodrug to parent compound is occurring in vivo. The terminal half-life of the prodrug may be faster or slower than the corresponding parent compound due to the contribution of conversion on the terminal half-life of the prodrug.

[2] = in vivo; set-up: species or system beagle dogs; conditions: dog, po, 300 mg; for Tmax / half-life: male, beagle
Procedure: The purpose of this method is to determine the terminal half-life and plasma exposure in vivo of the compounds of the present invention after p.o. administration to beagle dogs, i.e. the terminal half-life and concentration of test substance that reaches circulation with time. This is done in a pharmacokinetic (PK) study, where these parameters of the compound in question are determined. By terminal half-life is generally meant the period of time it takes to halve a certain plasma concentration, measured after the initial distribution phase.
Tablet compositions comprising the test compounds obtained from Example 1 and SNAC (sodium N-(8-(2-hydroxybenzoyl)amino)caprylate) were prepared according to methods known to the person skilled in the art by mixing test substance with roller compacted SNAC and magnesium stearate as e.g. described in WO 2019/149880. Each tablet was comprised of 7.7 mg magnesium stearate, 2-4 mg of each compound tested, and 300 mg SNAC.
Male beagle dogs, 1-7 years of age and weighing 9-17 kg during the study period, were included in the study. The dogs were dosed in a fasting state. The dogs were group housed in pens (12 hours light: 12 hours dark), and fed individually and restrictedly once daily with Royal Canin Medium Adult dog food (Royal Canin Products, China Branch, or Brogaarden A/S, Denmark). The dogs were used for repeated PK studies with a suitable wash-out period between successive dosing. An appropriate acclimatisation period was given prior to initiation of the first PK study. All handling, dosing, and blood sampling of the animals were performed by trained and skilled staff. Before the studies, the dogs were fasted overnight and from 0 to 4 hours after dosing. The dogs were restricted to water 1 hour before dosing until 4 hours after dosing, but otherwise had adlibitum access to water during the whole period.
The compositions were administered by a single oral dosing to the dogs in groups of 6-8 dogs. The tablets were administered in the following manner: 10 min prior to tablet administration, the dogs may be dosed subcutaneously with approximately 3 nmol/kg of SEQ ID NO.: 7 ([…]), then tablets were placed in the back of the mouth of the dog to prevent chewing. The mouth was then closed, and 10 mL of tap water was given by syringe or gavage to facilitate swallowing of the tablet.
One blood sample was drawn before dosing, and additional samples were drawn at predefined time points after dosing, such as for up to 600 hours, to adequately cover the full plasma concentration-time absorption profile of the test substance. For each blood sample time point, approximately 0.8 mL of whole blood was collected in a 1.5 mL EDTA-coated tube, which was gently turned to mix the sample with EDTA. Blood samples were collected in EDTA buffer (8 mM) and then centrifuged at 4° C. and 2000 g for 10 minutes. Plasma was pipetted into Micronic tubes on dry ice, and kept at −20° C. or lower until analysis. Blood samples were taken as appropriate, for example from a venflon in the cephalic vein in the front leg for the first 2 hours and then with syringe from the jugular vein for the rest of the time points. The first few drops were allowed to drain from the venflon to avoid heparin saline from the venflon in the sample. All blood samples were collected into test tubes containing EDTA for stabilisation and kept on ice until centrifugation. Plasma was separated from whole blood by centrifugation and the plasma was stored at −20° C. or lower until analysis.
The plasma was analysed for test substance using LC-MS (Liquid Chromatography-Mass Spectrometry) as known to the person skilled in the art. […]

[3] = physchem; assay type: physicochemical; conditions: buffer, pH 7.4
Procedure: The assay was performed to investigate the conversion half-life of prodrug to drug of the prodrugs of the invention. The conversion half-life was investigated in vitro at pH 7.4 upon incubation at 37° C.
Test compounds were dissolved to a concentration of 100 μM in phosphate-buffered saline (140 mM NaCl, 2.07 mM KCl, 8.05 mM Na2HPO4, 1.96 mM KH2PO4, pH 7.4). Solution pH was measured after dissolution and adjusted to pH 7.4 with aqueous NaOH if necessary. The solution was filtered through a 0.22 μm syringe filter, then incubated in a water bath at 37° C. Aliquots were withdrawn at defined timepoints, e.g. every 24-72 hours, for LCMS analysis.
LCMS analysis was performed using the procedure defined in LCMS_A above. The AUC of the prodrug, active drug, and DKP were determined using UV detection at 214 nm, and the ratio of prodrug AUC over total AUC of prodrug plus active drug plus DKP was calculated. The negative natural logarithm of this ratio was plotted over time, and a linear regression of this relationship was then performed.
The prodrug to drug conversion half-life of the compounds of the invention was measured as described in General Methods for Measuring Conversion Half-life.

| Compound | half-life [1] | AUC/Dose [2] | Cmax/Dose [2] | Tmax [2] | half-life [2] | half-life at 100 μM [3] |
| --- | --- | --- | --- | --- | --- | --- |
| CC[C@H](C)[C@H](NC(=O)[C@H](Cc1ccccc1)NC(=O)[C@H](CCC(=O)O)NC(=O)[C@H](CCCNC(=N)N)NC(=O)[C@H](C)NC(=O)[C@H](C)NC(=O)[C@H](CCC(N)=O)NC(=O)[C@H](CCC(=O)O)NC(=O)[C@H](CCC(=O)O)NC(=O)[C@H](CC(C)C)NC(=O)[C@H](CC(C)C)NC(=O)[C@@H](NC(=O)[C@H](CO)NC(=O)[C@H](Cc1ccc(O)cc1)NC(=O)[C@H](CC(=O)O)NC(=O)[C@H](CO)NC(=O)[C@@H](NC(=O)[C@H](Cc1ccccc1)NC(=O)[C@@H](NC(=O)CNC(=O)[C@H](CCC(=O)O)NC(=O)C(C)(C)NC(=O)[C@@H](N)Cc1ccc(O)cc1)[C@@H](C)O)[C@@H](C)O)[C@@H](C)CC)C(=O)N[C@@H](CCC(=O)O)C(=O)N[C@@H](Cc1c[nH]c2ccccc12)C(=O)N[C@@H](CC(C)C)C(=O)N[C@@H](CC(C)C)C(=O)N[C@@H](C)C(=O)NCC(=O)NCC(=O)N1CCC[C@H]1C(=O)N[C@@H](CO)C(=O)N[C@@H](CCCCNC(=O)[C@@H](N)CCCCNC(=O)[C@@H](N)CCCCNC(=O)CC[C@H](NC(=O)CCCCCCCCCCCCCCC(=O)O)C(=O)O)C(=O)NCC(=O)N[C@@H](C)C(=O)N1CCC[C@H]1C(=O)N1CCC[C@H]1C(=O)N1CCC[C@H]1C(=O)N[C@@H](CO)C(=O)O [Parent compound 2] (H-Y[Aib]EGTFTSDYSILLEEQAAREFIEWLLAGGPSK([εLys-εLys-γGlu-C16 diacid])GAPPPS-OH) | 104 h |  |  |  |  |  |
| CC[C@H](C)[C@H](NC(=O)[C@H](CC(C)C)NC(=O)[C@H](Cc1c[nH]c2ccccc12)NC(=O)[C@H](CCC(N)=O)NC(=O)[C@@H](NC(=O)[C@H](Cc1ccccc1)NC(=O)[C@H](C)NC(=O)[C@H](CCCCNC(=O)COCCOCCNC(=O)COCCOCCNC(=O)CC[C@H](NC(=O)CCCCCCCCCCCCCCCCCCC(=O)O)C(=O)O)NC(=O)[C@H](CCC(N)=O)NC(=O)[C@H](C)NC(=O)[C@@H](NC(=O)[C@H](CCCCN)NC(=O)[C@H](CC(=O)O)NC(=O)[C@H](CC(C)C)NC(=O)C(C)(C)NC(=O)[C@@H](NC(=O)[C@H](CO)NC(=O)[C@H](Cc1ccc(O)cc1)NC(=O)[C@H](CC(=O)O)NC(=O)[C@H](CO)NC(=O)[C@@H](NC(=O)[C@H](Cc1ccccc1)NC(=O)[C@@H](NC(=O)CNC(=O)[C@H](CCC(=O)O)NC(=O)C(C)(C)NC(=O)[C@H](Cc1ccc(O)cc1)NC(=O)CN(C)C(=O)[C@@H](N)CCCCNC(=O)CC[C@H](NC(=O)CCCCCCCCCCCCCCC(=O)O)C(=O)O)[C@@H](C)O)[C@@H](C)O)[C@@H](C)CC)[C@@H](C)CC)C(C)C)C(=O)N[C@@H](C)C(=O)NCC(=O)NCC(=O)N1CCC[C@H]1C(=O)N[C@@H](CO)C(=O)N[C@@H](CO)C(=O)NCC(=O)N[C@@H](C)C(=O)N1CCC[C@H]1C(=O)N1CCC[C@H]1C(=O)N1CCC[C@H]1C(=O)N[C@@H](CO)C(N)=O [Compound 18] |  | 13.3 kg·h/L | 0.15 kg/L | 4 h | 88 h | 101 h |
| H-K([γGlu-C18 diacid])[Sar]Y[Aib]EGTFTSDYSILLEEQAAREFIEWLLAGGPSK([εLys-εLys-γGlu-C16 diacid])GAPPPS-OH [Compound 13] |  | 41.3 kg·h/L | 0.36 kg/L | 4.3 h | 121 h | 137 h |
| H-K([γGlu-C18 diacid])[Sar]Y[Aib]EGTFTSDYSILLEEQAAREFIEWLLAGGPSK([εLys-εLys-γGlu-C18 diacid])GAPPPS-OH [Compound 15] |  | 21.7 kg·h/L | 0.20 kg/L | 1.5 h | 124 h | 127 h |
| H-K([γGlu-C16 diacid])[Sar]Y[Aib]EGTFTSDYSILLEK([εLys-εLys-γGlu-C18 diacid])QAAREFIEWLLAGGPSSGAPPPS-OH [Compound 16] |  | 67.6 kg·h/L | 0.73 kg/L | 4 h | 96 h | 117 h |
| H-K(X1)[Sar]Y[Aib]EGTFTSDYSILLEEQAAREFIEWLLAGGPSK([εLys-εLys-γGlu-C16 diacid])GAPPPS-OH [Compound 14] |  | 43.6 kg·h/L | 0.38 kg/L | 5.5 h | 119 h | 166 h |
| H-L[N(2-Aminoethyl)Gly]([γGlu-C16 diacid])Y[Aib]EGTFTSDYSILLEEQAAREFIEWLLAGGPSK([AEEA-AEEA-γGlu-C16 diacid])GAPPPS-OH [Compound 5] |  | 23.4 kg·h/L | 0.25 kg/L | 7 h | 106 h | 74 h |
| H-K([γGlu-C16 diacid])[Sar]Y[Aib]EGTFTSDYSILLEEQAAREFIEWLLAGGPSK([εLys-εLys-γGlu-C16 diacid])GAPPPS-OH [Compound 12] |  | 50.8 kg·h/L | 0.46 kg/L | 1.3 h | 143 h | 129 h |
